Here are results for 8 compounds from patent US9340590B2 (priority 2011, dated 2016).

Broadly, the IC50 is the midpoint of a concentration-inhibition curve. Lower therefore signals inhibition by little substance.

Molecules are shown by their SMILES. Positions of bridges follow the written chain, without caps; N, C: chain ends. Non-standard residues stand in square brackets, D forms with d. Residues, ends and D or L forms follow the SMILES beside them. Groups on a side chain read outwards from the residue. Arg(Me2s) = CN=C(NC)NCCC[C@H](N)C(=O)O; Arg(Me) = CNC(=N)NCCC[C@H](N)C(=O)O; Orn = NCCC[C@H](N)C(=O)O; Pra = C#CC[C@H](N)C(=O)O

The target in one test is hNav1.5 (Homo sapiens, UniProt Q14524). The experiment in a line: cell-based.
In a further test the target is hNav1.7 (Homo sapiens, UniProt Q15858). In words: cell-based. Particulars: Nav1.7 Use IC50.
Sequence of hNav1.7 (Q15858 whole entry, looked up): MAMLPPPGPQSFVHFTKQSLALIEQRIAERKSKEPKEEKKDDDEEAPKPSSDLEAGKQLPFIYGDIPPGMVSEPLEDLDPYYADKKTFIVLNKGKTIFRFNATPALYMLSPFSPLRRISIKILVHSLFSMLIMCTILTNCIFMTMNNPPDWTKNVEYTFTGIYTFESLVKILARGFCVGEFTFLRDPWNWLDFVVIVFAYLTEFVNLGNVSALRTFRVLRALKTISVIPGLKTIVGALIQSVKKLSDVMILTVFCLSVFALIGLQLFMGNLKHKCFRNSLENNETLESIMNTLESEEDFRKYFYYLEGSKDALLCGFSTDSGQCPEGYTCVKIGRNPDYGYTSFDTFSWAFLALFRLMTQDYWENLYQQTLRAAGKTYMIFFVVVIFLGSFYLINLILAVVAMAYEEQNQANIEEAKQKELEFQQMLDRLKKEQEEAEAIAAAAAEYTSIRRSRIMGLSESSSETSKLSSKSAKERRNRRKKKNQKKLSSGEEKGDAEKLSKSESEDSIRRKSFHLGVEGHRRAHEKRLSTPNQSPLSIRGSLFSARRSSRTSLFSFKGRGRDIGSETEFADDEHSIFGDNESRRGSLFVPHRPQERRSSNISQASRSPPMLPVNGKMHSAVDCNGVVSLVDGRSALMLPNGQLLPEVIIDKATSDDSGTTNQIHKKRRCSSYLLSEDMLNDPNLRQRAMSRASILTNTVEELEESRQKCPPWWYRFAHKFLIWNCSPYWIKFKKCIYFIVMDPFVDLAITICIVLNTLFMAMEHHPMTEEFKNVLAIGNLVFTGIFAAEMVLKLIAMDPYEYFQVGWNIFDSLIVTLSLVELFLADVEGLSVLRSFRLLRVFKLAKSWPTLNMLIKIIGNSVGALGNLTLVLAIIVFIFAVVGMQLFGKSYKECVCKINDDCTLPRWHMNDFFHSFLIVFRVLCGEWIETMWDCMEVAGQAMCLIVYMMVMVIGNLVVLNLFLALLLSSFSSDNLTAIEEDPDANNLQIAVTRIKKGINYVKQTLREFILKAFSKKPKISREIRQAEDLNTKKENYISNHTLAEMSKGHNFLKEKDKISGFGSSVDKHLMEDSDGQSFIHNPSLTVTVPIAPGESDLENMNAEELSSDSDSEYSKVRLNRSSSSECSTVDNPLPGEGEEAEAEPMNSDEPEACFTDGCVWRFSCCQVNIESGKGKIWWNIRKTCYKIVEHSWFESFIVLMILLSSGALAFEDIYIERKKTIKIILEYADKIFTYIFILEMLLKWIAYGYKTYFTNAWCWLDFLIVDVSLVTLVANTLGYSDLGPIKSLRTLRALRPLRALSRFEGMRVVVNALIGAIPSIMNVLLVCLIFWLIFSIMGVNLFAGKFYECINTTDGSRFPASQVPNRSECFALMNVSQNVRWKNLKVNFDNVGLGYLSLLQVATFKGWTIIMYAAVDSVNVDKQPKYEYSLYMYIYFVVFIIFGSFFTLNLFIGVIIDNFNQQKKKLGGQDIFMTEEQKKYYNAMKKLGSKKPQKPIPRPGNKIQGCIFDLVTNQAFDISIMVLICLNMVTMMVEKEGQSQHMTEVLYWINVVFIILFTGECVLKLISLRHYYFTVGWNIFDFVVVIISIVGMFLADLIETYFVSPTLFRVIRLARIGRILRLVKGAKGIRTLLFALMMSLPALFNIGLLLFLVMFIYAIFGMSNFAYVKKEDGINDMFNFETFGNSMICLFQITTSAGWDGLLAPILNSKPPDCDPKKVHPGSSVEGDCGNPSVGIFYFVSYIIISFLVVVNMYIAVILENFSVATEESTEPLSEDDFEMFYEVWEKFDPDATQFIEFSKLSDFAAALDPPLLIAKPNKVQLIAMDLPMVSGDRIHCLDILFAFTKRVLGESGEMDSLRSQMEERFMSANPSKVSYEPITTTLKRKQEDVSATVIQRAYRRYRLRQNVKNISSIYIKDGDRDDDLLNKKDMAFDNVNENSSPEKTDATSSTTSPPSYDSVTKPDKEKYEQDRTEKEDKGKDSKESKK

Sequence of hNav1.5 (Q14524 whole entry, looked up): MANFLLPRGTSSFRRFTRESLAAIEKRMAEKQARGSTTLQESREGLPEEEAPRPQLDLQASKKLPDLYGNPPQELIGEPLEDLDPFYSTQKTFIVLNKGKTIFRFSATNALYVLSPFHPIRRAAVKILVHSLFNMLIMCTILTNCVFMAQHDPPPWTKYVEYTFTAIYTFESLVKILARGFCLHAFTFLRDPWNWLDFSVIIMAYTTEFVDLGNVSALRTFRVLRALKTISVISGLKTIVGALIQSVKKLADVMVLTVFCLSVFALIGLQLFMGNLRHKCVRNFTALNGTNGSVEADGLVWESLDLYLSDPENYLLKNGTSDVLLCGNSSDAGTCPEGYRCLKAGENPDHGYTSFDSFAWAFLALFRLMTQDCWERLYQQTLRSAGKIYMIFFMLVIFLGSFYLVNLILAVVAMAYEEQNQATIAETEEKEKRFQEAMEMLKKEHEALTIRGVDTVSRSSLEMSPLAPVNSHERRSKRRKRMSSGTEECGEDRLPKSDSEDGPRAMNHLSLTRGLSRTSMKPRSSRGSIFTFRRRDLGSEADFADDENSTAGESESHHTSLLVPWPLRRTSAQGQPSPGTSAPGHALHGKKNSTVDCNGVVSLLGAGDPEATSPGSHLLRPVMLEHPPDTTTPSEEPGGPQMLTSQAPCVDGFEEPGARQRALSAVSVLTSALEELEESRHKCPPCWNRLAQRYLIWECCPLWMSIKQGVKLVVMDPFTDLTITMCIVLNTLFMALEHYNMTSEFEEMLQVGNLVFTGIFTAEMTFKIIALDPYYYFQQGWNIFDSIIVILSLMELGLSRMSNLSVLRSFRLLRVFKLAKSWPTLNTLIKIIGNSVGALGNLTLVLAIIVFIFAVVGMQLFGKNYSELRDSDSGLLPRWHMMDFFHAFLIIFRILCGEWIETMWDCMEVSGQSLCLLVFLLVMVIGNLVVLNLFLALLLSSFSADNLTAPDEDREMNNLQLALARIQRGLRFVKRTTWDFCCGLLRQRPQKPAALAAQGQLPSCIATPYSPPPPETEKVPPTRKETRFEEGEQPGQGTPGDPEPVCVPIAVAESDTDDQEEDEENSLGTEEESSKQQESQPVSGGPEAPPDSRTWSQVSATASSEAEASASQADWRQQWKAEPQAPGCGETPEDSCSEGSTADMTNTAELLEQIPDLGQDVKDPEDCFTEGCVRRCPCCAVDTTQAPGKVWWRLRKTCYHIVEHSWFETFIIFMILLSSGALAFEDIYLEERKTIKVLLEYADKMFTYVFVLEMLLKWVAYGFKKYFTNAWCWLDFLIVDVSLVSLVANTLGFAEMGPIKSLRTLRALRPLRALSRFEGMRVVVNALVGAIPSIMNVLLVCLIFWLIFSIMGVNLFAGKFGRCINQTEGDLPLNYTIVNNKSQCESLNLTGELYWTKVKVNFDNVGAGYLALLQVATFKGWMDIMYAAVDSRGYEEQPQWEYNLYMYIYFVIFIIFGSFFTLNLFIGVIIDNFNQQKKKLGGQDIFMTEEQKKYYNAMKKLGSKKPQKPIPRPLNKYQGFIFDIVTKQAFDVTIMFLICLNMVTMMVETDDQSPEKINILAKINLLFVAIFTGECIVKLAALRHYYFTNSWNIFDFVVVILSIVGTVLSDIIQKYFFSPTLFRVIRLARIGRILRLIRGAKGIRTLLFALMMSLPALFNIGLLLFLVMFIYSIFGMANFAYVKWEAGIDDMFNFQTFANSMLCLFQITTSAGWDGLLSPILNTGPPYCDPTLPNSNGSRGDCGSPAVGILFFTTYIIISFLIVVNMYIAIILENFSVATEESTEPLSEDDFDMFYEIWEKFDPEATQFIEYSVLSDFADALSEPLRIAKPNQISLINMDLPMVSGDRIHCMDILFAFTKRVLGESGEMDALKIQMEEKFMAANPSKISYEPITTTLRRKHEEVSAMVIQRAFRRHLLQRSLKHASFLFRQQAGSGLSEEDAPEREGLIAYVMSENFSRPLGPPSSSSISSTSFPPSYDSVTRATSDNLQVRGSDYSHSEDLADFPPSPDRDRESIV

With `CC[C@H](C)[C@@H]1NC(=O)[C@@H]2CSSC[C@@H]3NC(=O)[C@H](C(C)C)NC(=O)[C@H](CC(C)C)NC(=O)[C@H](CC(N)=O)NC(=O)[C@@H]4CCCN4C(=O)[C@H](CCCNC(=N)N)NC(=O)[C@H](CSSC[C@H](NC(=O)[C@@H](N)CC(=O)O)C(=O)N[C@@H](CC(C)C)C(=O)NCC(=O)N[C@@H](C)C(=O)N[C@@H](CC(C)C)C(=O)N[C@@H](CCCNC(=N)N)C(=O)N[C@@H](CCCCN)C(=O)N2)NC(=O)[C@H](CSSC[C@@H](C(=O)N[C@@H](CCCCN)C(=O)N[C@@H](Cc2ccc(O)cc2)C(=O)N[C@H](C(=O)N[C@@H](Cc2ccccc2)C(N)=O)C(C)C)NC(=O)[C@H](Cc2c[nH]c4ccccc24)NC(=O)[C@H](CCCCN)NC(=O)[C@H](Cc2c[nH]cn2)NC(=O)[C@H]([C@@H](C)O)NC(=O)[C@H](CCCNC(=N)N)NC(=O)[C@H](CO)NC3=O)NC(=O)[C@H](CCCCN)NC(=O)[C@H](CC(=O)O)NC(=O)[C@H](CC(N)=O)NC(=O)[C@H](CCC(=O)O)NC(=O)[C@@H]2CCCN2C1=O` [[Ala5;Leu6;Glu12]GpTx-1(1-34)], the half-inhibitory concentration (IC50) against hNav1.5 is greater than 10 µM; at hNav1.7, 0.021 µM.
Taken in the same sequence, the figures for `CC[C@H](C)[C@@H]1NC(=O)[C@@H]2CSSC[C@@H]3NC(=O)[C@H](C(C)C)NC(=O)[C@H](CC(C)C)NC(=O)[C@H](CC(N)=O)NC(=O)[C@@H]4CCCN4C(=O)[C@H](CCCNC(=N)N)NC(=O)[C@H](CSSC[C@H](NC(=O)[C@@H](N)CC(=O)O)C(=O)N[C@@H](CC(C)C)C(=O)NCC(=O)N[C@@H](C)C(=O)N[C@@H](CCSC)C(=O)N[C@@H](CCCNC(=N)N)C(=O)N[C@@H](CCCCN)C(=O)N2)NC(=O)[C@H](CSSC[C@@H](C(=O)N[C@@H](CCCCN)C(=O)N[C@@H](Cc2ccc(O)cc2)C(=O)N[C@H](C(=O)N[C@@H](Cc2ccccc2)C(N)=O)C(C)C)NC(=O)[C@H](Cc2c[nH]c4ccccc24)NC(=O)[C@H](CCCN)NC(=O)[C@H](Cc2c[nH]cn2)NC(=O)[C@H]([C@@H](C)O)NC(=O)[C@H](CCCNC(=N)N)NC(=O)[C@H](CO)NC3=O)NC(=O)[C@H](CCCCN)NC(=O)[C@H](CC(=O)O)NC(=O)[C@H](CC(N)=O)NC(=O)[C@H](CC(=O)O)NC(=O)[C@@H]2CCCN2C1=O` [[Ala5;Orn28]GpTx-1(1-34)] (H-DCLGAMRKCIPDNDKCCRPNLVCSRTH[Orn]WCKYVF-NH2; disulfide 2-17, 9-23, 16-30) were greater than 10 µM and 0.059 µM.
`CC(C)C[C@@H]1NC(=O)[C@@H](NC(=O)[C@@H](N)CC(=O)O)CSSC[C@@H]2NC(=O)[C@@H]3CSSC[C@@H](C(=O)N[C@@H](CCCCN)C(=O)N[C@@H](Cc4ccc(O)cc4)C(=O)N[C@H](C(=O)N[C@@H](Cc4ccccc4)C(N)=O)C(C)C)NC(=O)[C@H](Cc4c[nH]c5ccccc45)NC(=O)[C@H](CCCCN)NC(=O)[C@H](Cc4c[nH]cn4)NC(=O)[C@H]([C@@H](C)O)NC(=O)[C@H](CCCNC(=N)N)NC(=O)[C@H](CO)NC(=O)[C@H](CSSC[C@H](NC(=O)[C@H](CCCCN)NC(=O)[C@H](CCCNC(=N)N)NC(=O)[C@H](Cc4ccccc4)NC(=O)[C@H](C)NC(=O)CNC1=O)C(=O)N[C@@H](CC(=O)O)C(=O)N1CCC[C@H]1C(=O)N[C@@H](CC(=O)O)C(=O)N[C@@H](CC(N)=O)C(=O)N[C@@H](CC(=O)O)C(=O)N[C@@H](CCCCN)C(=O)N3)NC(=O)[C@H](C(C)C)NC(=O)[C@H](CC(C)C)NC(=O)[C@H](CC(N)=O)NC(=O)[C@@H]1CCCN1C(=O)[C@H](CCCNC(=N)N)NC2=O` [[Ala5;Phe6;Asp10]GpTx-1(1-34)] (H-DCLGAFRKCDPDNDKCCRPNLVCSRTHKWCKYVF-NH2; disulfide 2-17, 9-23, 16-30): the IC50 was greater than 10 µM on hNav1.5 and 0.04 µM at hNav1.7.
The like results for `CC(C)C[C@@H]1NC(=O)[C@@H](NC(=O)[C@@H](N)CC(=O)O)CSSC[C@@H]2NC(=O)[C@@H]3CSSC[C@@H](C(=O)N[C@@H](CCCCN)C(=O)N[C@@H](Cc4ccc(O)cc4)C(=O)N[C@H](C(=O)N[C@@H](Cc4ccccc4)C(N)=O)C(C)C)NC(=O)[C@H](Cc4c[nH]c5ccccc45)NC(=O)[C@H](CCCCN)NC(=O)[C@H](Cc4c[nH]cn4)NC(=O)[C@H]([C@@H](C)O)NC(=O)[C@H](CCCNC(=N)N)NC(=O)[C@H](CO)NC(=O)[C@H](CSSC[C@H](NC(=O)[C@H](CCCCN)NC(=O)[C@H](CCCNC(=N)N)NC(=O)[C@H](Cc4ccccc4)NC(=O)[C@H](C)NC(=O)CNC1=O)C(=O)N[C@@H](CCC(=O)O)C(=O)N1CCC[C@H]1C(=O)N[C@@H](CC(=O)O)C(=O)N[C@@H](CC(N)=O)C(=O)N[C@@H](CC(=O)O)C(=O)N[C@@H](CCCCN)C(=O)N3)NC(=O)[C@H](C(C)C)NC(=O)[C@H](CC(C)C)NC(=O)[C@H](CC(N)=O)NC(=O)[C@@H]1CCCN1C(=O)[C@H](CCCNC(=N)N)NC2=O` [[Ala5;Phe6;Glu10]GpTx-1(1-34)] (H-DCLGAFRKCEPDNDKCCRPNLVCSRTHKWCKYVF-NH2; disulfide 2-17, 9-23, 16-30) were, in that order, greater than 10 µM and 0.079 µM.
Consider `CC[C@H](C)[C@@H]1NC(=O)[C@@H]2CSSC[C@@H]3NC(=O)[C@H](C(C)C)NC(=O)[C@H](CC(C)C)NC(=O)[C@H](CC(N)=O)NC(=O)[C@@H]4CCCN4C(=O)[C@H](CCCNC(=N)N)NC(=O)[C@H](CSSC[C@H](NC(=O)[C@@H](N)CC(=O)O)C(=O)N[C@@H](CC(C)C)C(=O)NCC(=O)N[C@@H](C)C(=O)N[C@@H](Cc4ccccc4)C(=O)N[C@@H](CCCNC(=N)N)C(=O)N[C@@H](CCCCN)C(=O)N2)NC(=O)[C@H](CSSC[C@@H](C(=O)N[C@@H](CCCCN)C(=O)N[C@@H](Cc2ccc(O)cc2)C(=O)N[C@H](C(=O)N[C@@H](Cc2ccccc2)C(N)=O)C(C)C)NC(=O)[C@H](Cc2c[nH]c4ccccc24)NC(=O)[C@H](CCCCN)NC(=O)[C@H](Cc2c[nH]cn2)NC(=O)[C@H]([C@@H](C)O)NC(=O)[C@H](CCCNC(=N)N)NC(=O)[C@H](CO)NC3=O)NC(=O)[C@H](CCCCN)NC(=O)[C@H](CC(=O)O)NC(=O)[C@H](CC(N)=O)NC(=O)[C@H](CCC(=O)O)NC(=O)[C@@H]2CCCN2C1=O` [[Ala5;Phe6;Glu12]GpTx-1(1-34)] (H-DCLGAFRKCIPENDKCCRPNLVCSRTHKWCKYVF-NH2; disulfide 2-17, 9-23, 16-30), for which the IC50 was greater than 10 µM against hNav1.5 and 0.028 µM on hNav1.7.
As for `C#CC[C@H](NC(C)=O)C(=O)NCCCC[C@@H]1NC(=O)[C@H](CC(=O)O)NC(=O)[C@@H]2CCCN2C(=O)[C@H]([C@@H](C)CC)NC(=O)[C@@H]2CSSC[C@@H]3NC(=O)[C@H](C(C)C)NC(=O)[C@H](CC(C)C)NC(=O)[C@H](CC(N)=O)NC(=O)[C@@H]4CCCN4C(=O)[C@H](CCCNC(=N)N)NC(=O)[C@H](CSSC[C@H](NC(=O)[C@@H](N)CC(=O)O)C(=O)N[C@@H](CC(C)C)C(=O)NCC(=O)N[C@@H](C)C(=O)N[C@@H](Cc4ccccc4)C(=O)N[C@@H](CCCNC(=N)N)C(=O)N[C@@H](CCCCN)C(=O)N2)NC(=O)[C@H](CSSC[C@@H](C(=O)N[C@@H](CCCCN)C(=O)N[C@@H](Cc2ccc(O)cc2)C(=O)N[C@H](C(=O)N[C@@H](Cc2ccccc2)C(N)=O)C(C)C)NC(=O)[C@H](Cc2c[nH]c4ccccc24)NC(=O)[C@H](CCCCN)NC(=O)[C@H](Cc2c[nH]cn2)NC(=O)[C@H]([C@@H](C)O)NC(=O)[C@H](CCCNC(=N)N)NC(=O)[C@H](CO)NC3=O)NC(=O)[C@H](CCCCN)NC(=O)[C@H](CC(=O)O)NC1=O` [[Ala5;Phe6;K(Ac-Pra)13]GpTx-1(1-34)] (H-DCLGAFRKCIPDK([Pra-Ac])DKCCRPNLVCSRTHKWCKYVF-NH2; disulfide 2-17, 9-23, 16-30), the half-inhibitory concentration (IC50) was greater than 10 µM at hNav1.5 and 0.011 µM on hNav1.7.
The like results for `CC[C@H](C)[C@@H]1NC(=O)[C@@H]2CSSC[C@@H]3NC(=O)[C@H](C(C)C)NC(=O)[C@H](CC(C)C)NC(=O)[C@H](CC(N)=O)NC(=O)[C@@H]4CCCN4C(=O)[C@H](CCCNC(=N)N)NC(=O)[C@H](CSSC[C@H](NC(=O)[C@@H](N)CC(=O)O)C(=O)N[C@@H](CC(C)C)C(=O)NCC(=O)N[C@@H](C)C(=O)N[C@@H](CCSC)C(=O)N[C@@H](CCCNC(=N)N)C(=O)N[C@@H](CCCCN)C(=O)N2)NC(=O)[C@H](CSSC[C@@H](C(=O)N[C@@H](CCCCN)C(=O)N[C@@H](Cc2ccc(O)cc2)C(=O)N[C@H](C(=O)N[C@@H](Cc2ccccc2)C(N)=O)C(C)C)NC(=O)[C@H](Cc2c[nH]c4ccccc24)NC(=O)[C@H](CCCNC(=N)NC)NC(=O)[C@H](Cc2c[nH]cn2)NC(=O)[C@H]([C@@H](C)O)NC(=O)[C@H](CCCNC(=N)N)NC(=O)[C@H](CO)NC3=O)NC(=O)[C@H](CCCCN)NC(=O)[C@H](CC(=O)O)NC(=O)[C@H](CC(N)=O)NC(=O)[C@H](CC(=O)O)NC(=O)[C@@H]2CCCN2C1=O` [[Ala5;R(Me)28]GpTx-1(1-34)] (H-DCLGAMRKCIPDNDKCCRPNLVCSRTH[Arg(Me)]WCKYVF-NH2; disulfide 2-17, 9-23, 16-30) were, in that order, greater than 10 µM and 0.051 µM.
Taken in the same sequence, the figures for `CC[C@H](C)[C@@H]1NC(=O)[C@@H]2CSSC[C@@H]3NC(=O)[C@H](C(C)C)NC(=O)[C@H](CC(C)C)NC(=O)[C@H](CC(N)=O)NC(=O)[C@@H]4CCCN4C(=O)[C@H](CCCNC(=N)N)NC(=O)[C@H](CSSC[C@H](NC(=O)[C@@H](N)CC(=O)O)C(=O)N[C@@H](CC(C)C)C(=O)NCC(=O)N[C@@H](C)C(=O)N[C@@H](CCSC)C(=O)N[C@@H](CCCNC(=N)N)C(=O)N[C@@H](CCCCN)C(=O)N2)NC(=O)[C@H](CSSC[C@@H](C(=O)N[C@@H](CCCCN)C(=O)N[C@@H](Cc2ccc(O)cc2)C(=O)N[C@H](C(=O)N[C@@H](Cc2ccccc2)C(N)=O)C(C)C)NC(=O)[C@H](Cc2c[nH]c4ccccc24)NC(=O)[C@H](CCCNC(=NC)NC)NC(=O)[C@H](Cc2c[nH]cn2)NC(=O)[C@H]([C@@H](C)O)NC(=O)[C@H](CCCNC(=N)N)NC(=O)[C@H](CO)NC3=O)NC(=O)[C@H](CCCCN)NC(=O)[C@H](CC(=O)O)NC(=O)[C@H](CC(N)=O)NC(=O)[C@H](CC(=O)O)NC(=O)[C@@H]2CCCN2C1=O` [[Ala5;SDMA28]GpTx-1(1-34)] (H-DCLGAMRKCIPDNDKCCRPNLVCSRTH[Arg(Me2s)]WCKYVF-NH2; disulfide 2-17, 9-23, 16-30) were greater than 10 µM and 0.041 µM.
